{
  "source": "paper PMC12396409",
  "about": "“Screening and hit evaluation of a microbial metabolite library against the pathogenic Plasmodium falciparum and Toxoplasma gondii parasites” (International Journal for Parasitology: Drugs and Drug …, 2025)",
  "key": {"[1]": {"test_system": "P. falciparum 3D7 parasites", "assay": "P. falciparum growth inhibition assay, 2-cycle (120 h treatment), delayed-death screen and dose-response", "format": "cell-based, Plasmodium falciparum", "conditions": "for activity at 2 µg/mL: Plasmodium falciparum"}, "[2]": {"test_system": "P. falciparum 3D7 parasites", "assay": "P. falciparum growth inhibition assay, 1-cycle (72 h treatment), SYBR DNA staining (library screen at 2 μg/mL and dose-response)", "format": "cell-based, Plasmodium falciparum", "conditions": "for activity at 2 µg/mL: Plasmodium falciparum"}, "[3]": {"test_system": "T. gondii RH strain (RH-Tub-eYFP) tachyzoites", "assay": "microbe, parasite or virus in culture", "format": "cell-based, Toxoplasma gondii", "conditions": "72 h, 72 h; for percent parasite growth at 2 µg/mL: Toxoplasma gondii"}, "[4]": {"conditions": "T. gondii, screen at 2 μg/mL, replicate 1, read-out: Tg_72h_%Growth_Rep1"}, "[5]": {"conditions": "T. gondii, screen at 2 μg/mL, replicate 2, read-out: Tg_72h_%Growth_Rep2"}, "[6]": {"conditions": "P. falciparum 3D7, 120 h, library screen at 2 μg/mL, % growth, replicate 1"}, "[7]": {"conditions": "P. falciparum 3D7, 72 h, library screen at 2 μg/mL, % growth, replicate 1"}, "[8]": {"conditions": "P. falciparum 3D7, 72 h, library screen at 2 μg/mL, % growth, replicate 2"}, "[9]": {"conditions": "T. gondii RH, library screen at 2 μg/mL, % growth, replicate 1"}, "[10]": {"conditions": "T. gondii RH, library screen at 2 μg/mL, % growth, replicate 2"}, "[11]": {"conditions": "P. falciparum, 120 h, screen at 2 μg/mL, replicate 1"}, "[12]": {"conditions": "P. falciparum, 120 h, screen at 2 μg/mL, replicate 2"}, "[13]": {"conditions": "P. falciparum, 72 h, screen at 2 μg/mL, replicate 1"}, "[14]": {"conditions": "P. falciparum, 72 h, screen at 2 μg/mL, replicate 2"}, "[15]": {"conditions": "T. gondii, screen at 2 μg/mL, replicate 1"}, "[16]": {"conditions": "T. gondii, screen at 2 μg/mL, replicate 2"}},
  "note": "Read-outs that look alike come from different tables or passages of the source.",
  "data": [
    {"smiles": "CC=C1CN(C)C2Cc3c([nH]c4ccccc34)C(c3cc4[nH]c5c(c4cc3OC)CCN3CC4CC(CC)C3C5(C(=O)OC)C4)CC1C2C(=O)OC", "note": "(stereo not drawn) [Voacamine]", "values": [
      {"measurement": "activity at 2 µg/mL", "setting": "[1]; 3D7, 120 h, P. falciparum, 120 h, screen at 2 μg/mL, replicate 1, read-out: Pf_120h_%Growth_Rep1", "result": 106, "unit": "%"},
      {"measurement": "activity at 2 µg/mL", "setting": "[1]; 3D7, 120 h, P. falciparum, 120 h, screen at 2 μg/mL, replicate 2, read-out: Pf_120h_%Growth_Rep2", "result": 45.2, "unit": "%"},
      {"measurement": "activity at 2 µg/mL", "setting": "[2]; 3D7, 72 h, P. falciparum, 72 h, screen at 2 μg/mL, replicate 1, read-out: Pf_72h_%Growth_Rep1", "result": 56.2, "unit": "%"},
      {"measurement": "activity at 2 µg/mL", "setting": "[2]; 3D7, 72 h, P. falciparum, 72 h, screen at 2 μg/mL, replicate 2, read-out: Pf_72h_%Growth_Rep2", "result": 62, "unit": "%"},
      {"measurement": "percent parasite growth at 2 µg/mL", "setting": "[3]; [4]", "result": 97, "unit": "%"},
      {"measurement": "percent parasite growth at 2 µg/mL", "setting": "[3]; [5]", "result": 101, "unit": "%"}
    ]},
    {"smiles": "C[C@@H]1C[C@H](C)C[C@H](C)[C@@H](O)CC(=O)O[C@H]([C@@H]2CCC[C@H]2C(=O)O)C/C=C/C=C(/C#N)[C@H](O)[C@@H](C)C1", "note": "[Borrelidin]", "values": [
      {"measurement": "activity at 2 µg/mL", "setting": "[1]; 3D7, P. falciparum, 120 h, screen at 2 μg/mL, replicate 1, read-out: Pf_120h_%Growth_Rep1", "result": 4.36, "unit": "%"},
      {"measurement": "activity at 2 µg/mL", "setting": "[1]; 3D7, P. falciparum, 120 h, screen at 2 μg/mL, replicate 2, read-out: Pf_120h_%Growth_Rep2", "result": 5.57, "unit": "%"},
      {"measurement": "activity at 2 µg/mL", "setting": "[2]; 3D7, P. falciparum, 72 h, screen at 2 μg/mL, replicate 1, read-out: Pf_72h_%Growth_Rep1", "result": 2.87, "unit": "%"},
      {"measurement": "activity at 2 µg/mL", "setting": "[2]; 3D7, P. falciparum, 72 h, screen at 2 μg/mL, replicate 2, read-out: Pf_72h_%Growth_Rep2", "result": -1.49, "unit": "%"},
      {"measurement": "percent parasite growth at 2 µg/mL", "setting": "[3]; [4]", "result": 0.76, "unit": "%"},
      {"measurement": "percent parasite growth at 2 µg/mL", "setting": "[3]; [5]", "result": 1.62, "unit": "%"}
    ]},
    {"smiles": "CC[C@H](C)C(=O)O[C@H]1C[C@@H](C)C=C2C=C[C@H](C)[C@H](CC[C@@H]3C[C@@H](O)CC(=O)O3)[C@H]21", "note": "[BIA-L1264]", "values": [
      {"measurement": "Pf_120h_%Growth_Rep2", "setting": "[1]", "result": 93.18, "unit": "%"},
      {"measurement": "Pf_120h_%Growth_Rep1", "setting": "[1]; [6]", "result": 89.66, "unit": "%"},
      {"measurement": "Pf_72h_%Growth_Rep1", "setting": "[2]; [7]", "result": 70.29, "unit": "%"},
      {"measurement": "Pf_72h_%Growth_Rep2", "setting": "[2]; [8]", "result": 102.36, "unit": "%"},
      {"measurement": "Tg_72h_%Growth_Rep1", "setting": "[3]; [9]", "result": 3.18, "unit": "%"},
      {"measurement": "Tg_72h_%Growth_Rep2", "setting": "[3]; [10]", "result": 2.54, "unit": "%"}
    ]},
    {"smiles": "CCC(=O)N[C@H](CO)[C@H](O)c1ccc([N+](=O)[O-])cc1", "note": "[Corynecin II]", "values": [
      {"measurement": "Pf_120h_%Growth_Rep1", "setting": "[1]; [11]", "result": 83.93, "unit": "%"},
      {"measurement": "Pf_120h_%Growth_Rep2", "setting": "[1]; [12]", "result": 86.26, "unit": "%"},
      {"measurement": "Pf_72h_%Growth_Rep1", "setting": "[2]; [13]", "result": 84.27, "unit": "%"},
      {"measurement": "Pf_72h_%Growth_Rep2", "setting": "[2]; [14]", "result": 79.27, "unit": "%"},
      {"measurement": "Tg_72h_%Growth_Rep1", "setting": "[3]; [15]", "result": 140.85, "unit": "%"},
      {"measurement": "Tg_72h_%Growth_Rep2", "setting": "[3]; [16]", "result": 90.01, "unit": "%"}
    ]},
    {"smiles": "Cc1c2c(c(O)c3c(O)cccc13)C(=O)O[C@@H]2[C@@H]1[C@H](O)C(=O)C(C(N)=O)=C(O)[C@H]1N(C)C", "note": "[Apooxytetracycline, alpha-]", "values": [
      {"measurement": "Pf_120h_%Growth_Rep1", "setting": "[1]; library screen at 2 μg/mL, 120 h, % growth, replicate 1", "result": 91.28, "unit": "%"},
      {"measurement": "Pf_120h_%Growth_Rep2", "setting": "[1]; library screen at 2 μg/mL, 120 h, % growth, replicate 2", "result": 90.91, "unit": "%"},
      {"measurement": "Pf_72h_%Growth_Rep1", "setting": "[2]; library screen at 2 μg/mL, 72 h, % growth, replicate 1", "result": 86.78, "unit": "%"},
      {"measurement": "Pf_72h_%Growth_Rep2", "setting": "[2]; library screen at 2 μg/mL, 72 h, % growth, replicate 2", "result": 89.73, "unit": "%"},
      {"measurement": "Tg_72h_%Growth_Rep1", "setting": "[3]; library screen at 2 μg/mL, % growth, replicate 1", "result": 81.07, "unit": "%"},
      {"measurement": "Tg_72h_%Growth_Rep2", "setting": "[3]; library screen at 2 μg/mL, % growth, replicate 2", "result": 111.56, "unit": "%"}
    ]},
    {"smiles": "C=C(C)[C@@H]1CC[C@]2(C)CC[C@]3(C)[C@H](CC[C@@H]4[C@@]5(C)CC[C@H](O)C(C)(C)[C@@H]5CC[C@]43C)[C@@H]12", "note": "[BIA-L1759]", "values": [
      {"measurement": "Pf_120h_%Growth_Rep1", "setting": "[1]; [6]", "result": 99.08, "unit": "%"},
      {"measurement": "Pf_120h_%Growth_Rep2", "setting": "[1]; P. falciparum 3D7, 120 h, library screen at 2 μg/mL, % growth, replicate 2", "result": 111.54, "unit": "%"},
      {"measurement": "Pf_72h_%Growth_Rep1", "setting": "[2]; [7]", "result": 81.82, "unit": "%"},
      {"measurement": "Pf_72h_%Growth_Rep2", "setting": "[2]; [8]", "result": 111.85, "unit": "%"},
      {"measurement": "Tg_72h_%Growth_Rep1", "setting": "[3]; [9]", "result": 110.92, "unit": "%"},
      {"measurement": "Tg_72h_%Growth_Rep2", "setting": "[3]; [10]", "result": 91.52, "unit": "%"}
    ]},
    {"smiles": "CC[C@H]1OC(=O)[C@H](C)[C@@H](O[C@H]2C[C@@](C)(OC)[C@@H](O)[C@H](C)O2)[C@H](C)[C@@H](O[C@@H]2O[C@H](C)C[C@H](NC)[C@H]2O)[C@](C)(O)C[C@@H](C)C(=O)[C@H](C)[C@@H](O)[C@]1(C)O", "note": "[Demethylerythromycin A, N-]", "values": [
      {"measurement": "Pf_120h_%Growth_Rep1", "setting": "[1]; [11]", "result": 108.40, "unit": "%"},
      {"measurement": "Pf_120h_%Growth_Rep2", "setting": "[1]; [12]", "result": 97.63, "unit": "%"},
      {"measurement": "Pf_72h_%Growth_Rep1", "setting": "[2]; [13]", "result": 87.44, "unit": "%"},
      {"measurement": "Pf_72h_%Growth_Rep2", "setting": "[2]; [14]", "result": 93.22, "unit": "%"},
      {"measurement": "Tg_72h_%Growth_Rep1", "setting": "[3]; [15]", "result": 111.33, "unit": "%"},
      {"measurement": "Tg_72h_%Growth_Rep2", "setting": "[3]; [16]", "result": 103.06, "unit": "%"}
    ]},
    {"smiles": "C/C1=C\\[C@H](C)C[C@H](C)[C@H](Cc2cnco2)OC(=O)/C(C)=C/CC[C@H](C)[C@H](Cc2cnco2)OC1=O", "note": "[Conglobatin B]", "values": [
      {"measurement": "Pf_120h_%Growth_Rep1", "setting": "[1]; [11]", "result": 80.47, "unit": "%"},
      {"measurement": "Pf_120h_%Growth_Rep2", "setting": "[1]; [12]", "result": 86.62, "unit": "%"},
      {"measurement": "Pf_72h_%Growth_Rep1", "setting": "[2]; [13]", "result": 81.21, "unit": "%"},
      {"measurement": "Pf_72h_%Growth_Rep2", "setting": "[2]; [14]", "result": 81.29, "unit": "%"},
      {"measurement": "Tg_72h_%Growth_Rep1", "setting": "[3]; [15]", "result": 184.82, "unit": "%"},
      {"measurement": "Tg_72h_%Growth_Rep2", "setting": "[3]; [16]", "result": 99.16, "unit": "%"}
    ]}
  ]
}
